SMILES strings stand for the structures.

For this assay, the target named is cGMP-inhibited 3',5'-cyclic phosphodiesterase 3A/3B (Homo sapiens, UniProt Q13370+Q14432). Description: Inhibition of phosphodiesterase (PDE) 3.
Chain of cGMP-inhibited 3',5'-cyclic phosphodiesterase 3A/3B (Q14432 whole entry): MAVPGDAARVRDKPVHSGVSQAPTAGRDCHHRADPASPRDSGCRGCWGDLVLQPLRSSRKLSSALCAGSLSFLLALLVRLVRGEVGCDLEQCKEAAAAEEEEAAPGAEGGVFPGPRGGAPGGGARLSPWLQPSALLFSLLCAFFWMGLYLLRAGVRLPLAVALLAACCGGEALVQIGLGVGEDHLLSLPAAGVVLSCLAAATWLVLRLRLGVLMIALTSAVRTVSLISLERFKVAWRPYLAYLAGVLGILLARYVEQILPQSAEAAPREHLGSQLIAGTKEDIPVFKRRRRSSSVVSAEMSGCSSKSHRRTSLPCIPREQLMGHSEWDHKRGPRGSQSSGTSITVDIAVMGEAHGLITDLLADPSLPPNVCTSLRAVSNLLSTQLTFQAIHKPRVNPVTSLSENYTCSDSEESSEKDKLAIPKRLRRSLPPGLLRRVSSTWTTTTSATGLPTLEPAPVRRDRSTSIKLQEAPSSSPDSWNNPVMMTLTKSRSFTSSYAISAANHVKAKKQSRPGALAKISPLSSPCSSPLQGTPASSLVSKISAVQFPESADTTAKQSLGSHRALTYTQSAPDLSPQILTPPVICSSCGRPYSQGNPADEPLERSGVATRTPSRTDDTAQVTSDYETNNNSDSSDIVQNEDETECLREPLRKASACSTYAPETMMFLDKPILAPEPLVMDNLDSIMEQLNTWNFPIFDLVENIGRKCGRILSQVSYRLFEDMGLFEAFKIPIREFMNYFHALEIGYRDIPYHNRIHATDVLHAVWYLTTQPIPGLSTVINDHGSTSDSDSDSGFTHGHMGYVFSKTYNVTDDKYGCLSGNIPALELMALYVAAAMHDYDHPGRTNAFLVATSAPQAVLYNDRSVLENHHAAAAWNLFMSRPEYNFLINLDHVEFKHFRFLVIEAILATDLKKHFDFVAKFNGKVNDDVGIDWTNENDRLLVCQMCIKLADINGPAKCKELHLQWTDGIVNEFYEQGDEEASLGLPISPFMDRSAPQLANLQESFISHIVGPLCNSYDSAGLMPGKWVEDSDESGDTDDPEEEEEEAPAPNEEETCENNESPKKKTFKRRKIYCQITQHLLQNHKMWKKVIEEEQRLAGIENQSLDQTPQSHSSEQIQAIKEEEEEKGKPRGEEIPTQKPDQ
Chain of cGMP-inhibited 3',5'-cyclic phosphodiesterase 3A/3B (Q13370 whole entry): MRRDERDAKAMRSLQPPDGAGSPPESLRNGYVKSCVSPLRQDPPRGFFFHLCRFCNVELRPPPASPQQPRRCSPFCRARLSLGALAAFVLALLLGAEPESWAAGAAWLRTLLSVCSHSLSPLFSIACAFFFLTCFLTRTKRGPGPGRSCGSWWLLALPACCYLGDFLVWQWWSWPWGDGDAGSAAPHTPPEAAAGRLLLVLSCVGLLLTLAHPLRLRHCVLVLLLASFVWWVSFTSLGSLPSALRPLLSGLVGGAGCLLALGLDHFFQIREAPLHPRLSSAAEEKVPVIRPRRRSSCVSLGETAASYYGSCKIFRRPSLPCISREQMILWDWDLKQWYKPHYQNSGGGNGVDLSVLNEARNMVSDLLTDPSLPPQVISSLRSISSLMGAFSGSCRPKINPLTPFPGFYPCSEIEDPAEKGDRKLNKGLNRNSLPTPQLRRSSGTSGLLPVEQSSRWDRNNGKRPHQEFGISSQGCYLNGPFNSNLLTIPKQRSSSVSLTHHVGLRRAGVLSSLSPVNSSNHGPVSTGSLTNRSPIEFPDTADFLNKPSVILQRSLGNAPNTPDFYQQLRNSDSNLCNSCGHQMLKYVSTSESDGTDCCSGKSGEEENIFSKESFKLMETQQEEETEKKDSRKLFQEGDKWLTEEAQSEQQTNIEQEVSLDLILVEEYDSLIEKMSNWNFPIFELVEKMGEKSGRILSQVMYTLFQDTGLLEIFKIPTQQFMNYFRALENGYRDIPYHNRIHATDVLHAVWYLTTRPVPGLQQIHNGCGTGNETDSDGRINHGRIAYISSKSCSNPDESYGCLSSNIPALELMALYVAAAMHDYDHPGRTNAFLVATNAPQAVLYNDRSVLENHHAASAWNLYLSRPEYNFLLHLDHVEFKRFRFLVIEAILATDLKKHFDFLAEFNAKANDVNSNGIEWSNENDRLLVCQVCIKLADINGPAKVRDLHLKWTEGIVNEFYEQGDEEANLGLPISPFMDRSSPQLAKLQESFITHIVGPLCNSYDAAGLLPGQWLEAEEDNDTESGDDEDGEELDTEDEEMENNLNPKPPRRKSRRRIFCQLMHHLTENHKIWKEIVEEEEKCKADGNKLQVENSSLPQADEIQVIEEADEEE
On to `COc1cccc(COc2cccc(N3CC(c4ccc(OC)c(OC5CCCC5)c4)CC3=O)c2)c1` (centres undefined), for which the half-inhibitory concentration (IC50) (commonly the concentration that inhibits the measured activity by half) is > 100 µM.

With `COc1cccc(COc2cc(C(=O)NN(C)C)cc(N3CC(c4ccc(OC)c(OC5CCCC5)c4)CC3=O)c2)c1` (centres undefined), the IC50 was > 100 µM.

`COc1cccc(COc2cc(C(=O)O)cc(N3CC(c4ccc(OC)c(OC5CCCC5)c4)CC3=O)c2)c1` (centres undefined): the IC50 is > 100 µM.

For the compound `COc1ccc([C@@H]2CNC(=O)C2)cc1OC1CCCC1` (racemic) [Adeo], the IC50 was > 100 µM.

The values above are taken from BindingDB's records for doi:10.1016/s0960-894x(98)00583-6 (Novartis Horsham Research Center, 1999).
